Results from US8883827B2, “Azole derivatives as WTN pathway inhibitors” (Oslo University Hospital HF, priority 2009, dated 2014).
Like-named read-outs stand apart in the source and are kept apart here.

Assays:
Aurora-A(h) = molecular target: T1, Aurora-A(h) (Homo sapiens, UniProt O14965); assay: Kinase screen; type: biochemical; details: 0.1% DMSO control = 100%
T1 construct: purchased Millipore (KinaseProfiler service)

PKCα(h) = molecular target: T2, PKCα(h) (Homo sapiens, UniProt P17252); assay: Kinase screen; type: biochemical; details: 0.1% DMSO control = 100%
T2 construct: purchased Millipore (KinaseProfiler service)

GSK3β(h) = molecular target: T3, GSK3β(h) (Homo sapiens, UniProt P49841); assay: Kinase screen; type: biochemical; details: 0.1% DMSO control = 100%
T3 construct: purchased Millipore (KinaseProfiler service)

Pim-1(h) = molecular target: T4, Pim-1(h) (Homo sapiens, UniProt P11309); assay: Kinase screen; type: biochemical; details: 0.1% DMSO control = 100%
T4 construct: purchased Millipore (KinaseProfiler service)

VHR(h) = molecular target: T5, VHR(h) (Homo sapiens, UniProt P51452); assay: Phosphatase screen; type: biochemical; details: 0.1% DMSO control = 100%
T5 construct: purchased Millipore (KinaseProfiler service)
T5 sequence (P51452 whole entry): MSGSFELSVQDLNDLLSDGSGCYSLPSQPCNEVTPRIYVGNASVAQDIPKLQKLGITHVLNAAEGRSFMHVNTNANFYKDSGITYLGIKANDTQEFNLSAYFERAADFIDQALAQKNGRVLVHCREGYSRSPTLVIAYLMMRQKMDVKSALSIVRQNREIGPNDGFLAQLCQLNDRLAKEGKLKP

SW480 cells [1] = assay: Growth inhibition (GI50) MTS assay; type: cell-based; details: Homo sapiens, 72 h
Procedure: Growth inhibition curves were prepared using SW480 cells, prepared essentially according to Example 23. SW480 cells (3000 cells per well) were seeded on 96 well plates (eight replicates per treatment). 24 hours later and daily thereafter, cell culture media (including 10% FBS) was mixed with various compound concentrations or with 0.1% DMSO vehicle and then added to the wells. Sixteen wells of seeded control cells, defining incubation time zero (to =24 hour after cell seeding), were incubated with […] substrate in 100 μl of phenol-free D-MEM (Invitrogen) for 2 hours, as described in the CellTiter 96® AQueous Non-Radioactive Cell Proliferation Assay protocol (MTS, Promega). The A490 was recorded. The treatment samples were likewise measured after 72 hours. The following formula was used to determine the single well relative A490 sample values: ((Sample A490−Average A490t0)*100)/(Average A490t720.1% DMSO control−Average A490t0)
XLfit (idbs) was used to determine the IC50 and GI50 values in inhibition experiments. The data were fit to the following formulae:
GI50: Eadie-Hofstee Model: fit=(A+((B*x)/((C*(D+1))+x))) inv=(((y−A)*(C*(D+1)))/((A+B)−y)) res=(y−fit)

TNF-α pathway = assay: NF-κB-Luciferase reporter in HEK293 cells with rTNF-α; type: cell-based; details: 1 or 10 μM, 24 h, 10 ng/ml rTNF-α
Source text: 2) HEK293 cells transiently transfected with a NF-κB-Luciferase reporter (NF-κB-Luc—purchased from Promega).

Rse(h) = molecular target: T6, Rse(h) (Homo sapiens, UniProt Q06418); assay: Kinase screen; type: biochemical; details: 0.1% DMSO control = 100%
T6 construct: purchased Millipore (KinaseProfiler service)

Plk3(h) = molecular target: T7, Plk3(h) (Homo sapiens, UniProt Q9H4B4); assay: Kinase screen; type: biochemical; details: 0.1% DMSO control = 100%
T7 construct: purchased Millipore (KinaseProfiler service)
T7 sequence (Q9H4B4 whole entry): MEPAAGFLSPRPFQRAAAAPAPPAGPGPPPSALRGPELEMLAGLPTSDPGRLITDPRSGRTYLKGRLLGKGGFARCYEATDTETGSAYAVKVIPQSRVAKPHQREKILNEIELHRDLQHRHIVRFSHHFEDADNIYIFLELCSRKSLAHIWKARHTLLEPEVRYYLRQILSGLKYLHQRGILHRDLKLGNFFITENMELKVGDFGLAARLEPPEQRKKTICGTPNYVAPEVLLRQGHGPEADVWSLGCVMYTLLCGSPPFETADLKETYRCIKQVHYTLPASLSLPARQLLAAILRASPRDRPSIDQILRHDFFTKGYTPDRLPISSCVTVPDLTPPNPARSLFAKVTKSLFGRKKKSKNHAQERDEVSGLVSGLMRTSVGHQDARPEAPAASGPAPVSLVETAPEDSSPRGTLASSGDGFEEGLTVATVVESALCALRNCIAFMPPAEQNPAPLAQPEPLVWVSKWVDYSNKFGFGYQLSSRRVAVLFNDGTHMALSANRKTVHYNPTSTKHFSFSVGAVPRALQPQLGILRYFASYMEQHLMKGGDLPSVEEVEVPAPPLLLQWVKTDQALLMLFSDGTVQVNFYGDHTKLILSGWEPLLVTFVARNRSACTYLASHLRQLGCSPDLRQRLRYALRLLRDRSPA

SRPK1(h) = molecular target: T8, SRPK1(h) (Homo sapiens, UniProt Q96SB4); assay: Kinase screen; type: biochemical; details: 0.1% DMSO control = 100%
T8 construct: purchased Millipore (KinaseProfiler Service)

SW480 cells [2] = assay: Real-time RT-PCR of Wnt target genes; type: cell-based; details: 10 (or 25) M as printed, 72 h, relative to GAPDH
Procedure: (§1) A real-time RT-PCR analysis was employed to confirm specific inhibition of expressed Wnt target genes. […] After 24 hours, solutions containing compound No. 1 were added at 10 or 25 μm final concentrations. Media containing the test compound were changed daily for 3 days. […] Real Time RT-PCR (SYBR Green PCR Mastermix, Stratagene) was performed using the following primers on a Mx3000P® QPCR System real-time thermal cycler (Stratagene): Results were calculated as the ratio of expression of target gene to a control gene (GAPDH).

DLD-1 cells = assay: Real-time RT-PCR of Wnt target genes; type: cell-based; details: 10 (or 25) M as printed, 72 h, relative to GAPDH
Procedure: as §1

MEK1(h) = molecular target: T9, MEK1(h) (Homo sapiens, UniProt Q02750); assay: Kinase screen; type: biochemical; details: 0.1% DMSO control = 100%
T9 construct: purchased Millipore (KinaseProfiler service)

EGFR(h) = molecular target: T10, EGFR(h) (Homo sapiens, UniProt P00533); assay: Kinase screen; type: biochemical; details: 0.1% DMSO control = 100%
T10 construct: purchased Millipore (KinaseProfiler service)

CK1γ1(h) = molecular target: T11, CK1γ1(h) (Homo sapiens, UniProt Q9HCP0); assay: Kinase screen; type: biochemical; details: 0.1% DMSO control = 100%
T11 construct: purchased Millipore (KinaseProfiler service)
T11 sequence (Q9HCP0 whole entry): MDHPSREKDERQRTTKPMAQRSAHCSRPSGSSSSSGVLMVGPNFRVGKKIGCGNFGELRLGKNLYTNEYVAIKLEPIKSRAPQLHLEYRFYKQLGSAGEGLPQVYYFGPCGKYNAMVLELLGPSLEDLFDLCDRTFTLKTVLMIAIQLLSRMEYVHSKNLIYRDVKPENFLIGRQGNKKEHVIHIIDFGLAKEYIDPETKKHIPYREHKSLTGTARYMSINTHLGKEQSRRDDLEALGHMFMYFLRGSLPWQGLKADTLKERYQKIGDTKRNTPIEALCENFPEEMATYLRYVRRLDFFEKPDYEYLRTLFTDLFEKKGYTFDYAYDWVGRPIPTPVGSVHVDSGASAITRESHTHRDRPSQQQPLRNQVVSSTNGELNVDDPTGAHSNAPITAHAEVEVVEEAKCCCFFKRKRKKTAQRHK

IKKα(h) = molecular target: T12, IKKα(h) (Homo sapiens, UniProt O15111); assay: Kinase screen; type: biochemical; details: 0.1% DMSO control = 100%
T12 construct: purchased Millipore (KinaseProfiler service)

[3] = Compound concentration in plasma and tumors of xenograft mice; type: in vivo; details: C.B-Igh-1b/IcrTac-Prkdc scid (CB17/SCID), mouse, intraperitoneal, 24 h after last injection, day 29
Procedure: Daily injections (200 μl, i.p.) followed (two day injection intermissions after every fifth injection day) until experiment end (29 days). At the termination day, 24 hours after the last injection, blood was collected after cardiac puncture and the tumors were removed and weighed. The compound concentration in plasma and tumors was determined using an on-line and off-line Solid Phase Extraction-Capillary Liquid Chromatography (SPE-CapLC) instrumentation coupled to a Time of Flight (TOF) mass spectrometer, as previously described (Wilson, S. R. et al., J. Sep. Sci. 28: 1751-1758, 2005). A Zorbax SB C18 5 μm 150×0.3 mm column (Agilent, […], Calif., USA) was used for separation, and a Knauer K-2600 UV detector was used as a complimentary detector.

AMPKα1(h) = molecular target: T13, AMPKα1(h) (Homo sapiens, UniProt Q13131); assay: Kinase screen; type: biochemical; details: 0.1% DMSO control = 100%
T13 construct: purchased Millipore (KinaseProfiler service)
T13 sequence (Q13131 whole entry): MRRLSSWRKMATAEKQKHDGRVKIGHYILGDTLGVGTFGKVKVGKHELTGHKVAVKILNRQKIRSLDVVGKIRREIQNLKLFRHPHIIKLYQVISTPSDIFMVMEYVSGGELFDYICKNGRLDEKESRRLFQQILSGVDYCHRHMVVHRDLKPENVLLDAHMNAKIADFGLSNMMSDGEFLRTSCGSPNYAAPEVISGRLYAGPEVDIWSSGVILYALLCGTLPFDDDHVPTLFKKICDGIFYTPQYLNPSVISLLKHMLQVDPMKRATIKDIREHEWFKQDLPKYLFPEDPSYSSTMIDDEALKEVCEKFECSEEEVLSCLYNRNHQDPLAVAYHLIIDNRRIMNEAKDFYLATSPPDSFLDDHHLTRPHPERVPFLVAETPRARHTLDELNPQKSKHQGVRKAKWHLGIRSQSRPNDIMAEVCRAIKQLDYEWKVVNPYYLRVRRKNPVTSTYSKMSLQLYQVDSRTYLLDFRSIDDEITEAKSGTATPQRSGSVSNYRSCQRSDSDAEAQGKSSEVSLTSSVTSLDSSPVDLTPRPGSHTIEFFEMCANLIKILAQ
T13 sequence (Q9Y478 whole entry partner): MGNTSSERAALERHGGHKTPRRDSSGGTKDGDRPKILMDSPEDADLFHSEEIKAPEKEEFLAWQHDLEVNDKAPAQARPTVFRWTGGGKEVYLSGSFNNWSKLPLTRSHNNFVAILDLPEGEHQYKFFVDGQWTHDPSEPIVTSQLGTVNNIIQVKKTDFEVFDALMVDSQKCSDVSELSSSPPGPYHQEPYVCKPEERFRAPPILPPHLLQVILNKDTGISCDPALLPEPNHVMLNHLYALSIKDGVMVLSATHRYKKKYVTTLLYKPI
T13 sequence (P54619 whole entry partner): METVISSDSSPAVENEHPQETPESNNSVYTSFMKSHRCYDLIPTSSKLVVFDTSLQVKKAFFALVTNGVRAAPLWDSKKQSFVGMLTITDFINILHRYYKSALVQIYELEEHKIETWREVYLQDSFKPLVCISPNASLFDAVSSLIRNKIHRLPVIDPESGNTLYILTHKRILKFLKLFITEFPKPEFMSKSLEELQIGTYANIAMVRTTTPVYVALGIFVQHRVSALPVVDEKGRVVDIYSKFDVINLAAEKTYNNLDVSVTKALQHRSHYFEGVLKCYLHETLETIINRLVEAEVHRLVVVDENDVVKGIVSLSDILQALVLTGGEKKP

CDK7/cyclinH/MAT1(h) = molecular target: T14, CDK7/cyclinH/MAT1(h) (Homo sapiens, UniProt P50613); assay: Kinase screen; type: biochemical; details: 0.1% DMSO control = 100%
T14 construct: purchased Millipore (KinaseProfiler service)
T14 sequence (P50613 whole entry): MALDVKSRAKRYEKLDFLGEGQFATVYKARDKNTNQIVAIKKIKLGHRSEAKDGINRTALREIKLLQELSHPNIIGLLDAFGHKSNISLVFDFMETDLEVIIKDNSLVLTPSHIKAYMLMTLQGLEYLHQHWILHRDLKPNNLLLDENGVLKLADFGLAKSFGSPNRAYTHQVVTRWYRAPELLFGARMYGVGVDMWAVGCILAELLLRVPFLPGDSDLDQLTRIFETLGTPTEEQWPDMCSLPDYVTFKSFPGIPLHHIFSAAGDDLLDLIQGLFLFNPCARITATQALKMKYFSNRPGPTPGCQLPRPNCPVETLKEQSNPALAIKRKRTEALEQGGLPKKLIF
T14 sequence (P51946 whole entry partner): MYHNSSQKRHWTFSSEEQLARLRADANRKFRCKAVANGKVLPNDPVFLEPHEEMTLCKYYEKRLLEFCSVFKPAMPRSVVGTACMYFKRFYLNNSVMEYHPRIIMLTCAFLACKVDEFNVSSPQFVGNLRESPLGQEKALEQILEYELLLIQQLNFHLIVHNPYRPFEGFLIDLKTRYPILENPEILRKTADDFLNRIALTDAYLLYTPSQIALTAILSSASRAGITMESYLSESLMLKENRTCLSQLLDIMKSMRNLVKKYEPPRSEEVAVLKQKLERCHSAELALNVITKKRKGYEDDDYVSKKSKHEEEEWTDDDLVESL
T14 sequence (P51948 whole entry partner): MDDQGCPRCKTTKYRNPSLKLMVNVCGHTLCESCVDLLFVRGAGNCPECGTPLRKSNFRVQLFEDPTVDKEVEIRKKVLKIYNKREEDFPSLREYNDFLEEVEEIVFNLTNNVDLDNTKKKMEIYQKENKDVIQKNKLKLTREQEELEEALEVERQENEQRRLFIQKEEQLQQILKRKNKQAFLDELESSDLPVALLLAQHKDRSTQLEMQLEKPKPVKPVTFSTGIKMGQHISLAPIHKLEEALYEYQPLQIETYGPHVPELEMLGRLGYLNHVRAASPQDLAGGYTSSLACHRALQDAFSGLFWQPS

CDK9/cyclin T1(h) = molecular target: T15, CDK9/cyclin T1(h) (Homo sapiens, UniProt P50750); assay: Kinase screen; type: biochemical; details: 0.1% DMSO control = 100%
T15 construct: purchased Millipore (KinaseProfiler service)
T15 sequence (P50750 whole entry): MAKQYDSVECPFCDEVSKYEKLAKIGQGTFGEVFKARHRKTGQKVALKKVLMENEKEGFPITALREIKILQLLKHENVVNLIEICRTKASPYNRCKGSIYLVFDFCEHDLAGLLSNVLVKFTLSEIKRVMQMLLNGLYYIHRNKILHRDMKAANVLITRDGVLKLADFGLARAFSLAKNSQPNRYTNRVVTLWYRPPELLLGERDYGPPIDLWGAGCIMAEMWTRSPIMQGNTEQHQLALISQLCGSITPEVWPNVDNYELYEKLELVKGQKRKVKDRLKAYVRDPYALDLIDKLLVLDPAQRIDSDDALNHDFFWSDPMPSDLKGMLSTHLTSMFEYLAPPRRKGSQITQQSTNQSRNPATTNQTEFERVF
T15 sequence (O60563 whole entry partner): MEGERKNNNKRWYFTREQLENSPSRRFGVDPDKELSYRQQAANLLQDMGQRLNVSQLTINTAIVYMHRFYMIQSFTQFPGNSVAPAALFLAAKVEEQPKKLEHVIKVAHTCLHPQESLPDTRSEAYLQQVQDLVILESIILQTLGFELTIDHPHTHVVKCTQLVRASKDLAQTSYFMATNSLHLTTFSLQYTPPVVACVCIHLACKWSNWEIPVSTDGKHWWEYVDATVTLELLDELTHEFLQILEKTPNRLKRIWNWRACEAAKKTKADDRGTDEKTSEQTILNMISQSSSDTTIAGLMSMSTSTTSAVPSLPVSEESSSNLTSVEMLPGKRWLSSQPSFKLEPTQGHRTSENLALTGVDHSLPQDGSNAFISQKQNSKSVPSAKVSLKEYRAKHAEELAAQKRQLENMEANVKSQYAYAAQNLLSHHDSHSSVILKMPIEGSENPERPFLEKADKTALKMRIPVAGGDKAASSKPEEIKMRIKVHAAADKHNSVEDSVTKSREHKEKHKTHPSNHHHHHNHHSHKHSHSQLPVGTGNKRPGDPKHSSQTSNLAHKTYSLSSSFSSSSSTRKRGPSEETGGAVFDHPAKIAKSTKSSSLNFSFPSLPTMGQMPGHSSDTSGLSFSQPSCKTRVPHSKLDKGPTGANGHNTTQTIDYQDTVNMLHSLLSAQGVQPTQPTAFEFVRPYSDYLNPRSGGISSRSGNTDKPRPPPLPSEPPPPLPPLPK

MAPK2(h) = molecular target: T16, MAPK2(h) (Homo sapiens, UniProt P28482); assay: Kinase screen; type: biochemical; details: 0.1% DMSO control = 100%
T16 construct: purchased Millipore (KinaseProfiler service)

CDK1/cyclinB(h) = molecular target: T17, CDK1/cyclinB(h) (Homo sapiens, UniProt P06493); assay: Kinase screen; type: biochemical; details: 0.1% DMSO control = 100%
T17 construct: purchased Millipore (KinaseProfiler service)

EphB4(h) = molecular target: T18, EphB4(h) (Homo sapiens, UniProt P54760); assay: Kinase screen; type: biochemical; details: 0.1% DMSO control = 100%
T18 construct: purchased Millipore (KinaseProfiler service)

MKK7β(h) = molecular target: T19, MKK7β(h) (Homo sapiens, UniProt O14733); assay: Kinase screen; type: biochemical; details: 0.1% DMSO control = 100%
T19 construct: purchased Millipore (KinaseProfiler service)
T19 sequence (O14733 whole entry): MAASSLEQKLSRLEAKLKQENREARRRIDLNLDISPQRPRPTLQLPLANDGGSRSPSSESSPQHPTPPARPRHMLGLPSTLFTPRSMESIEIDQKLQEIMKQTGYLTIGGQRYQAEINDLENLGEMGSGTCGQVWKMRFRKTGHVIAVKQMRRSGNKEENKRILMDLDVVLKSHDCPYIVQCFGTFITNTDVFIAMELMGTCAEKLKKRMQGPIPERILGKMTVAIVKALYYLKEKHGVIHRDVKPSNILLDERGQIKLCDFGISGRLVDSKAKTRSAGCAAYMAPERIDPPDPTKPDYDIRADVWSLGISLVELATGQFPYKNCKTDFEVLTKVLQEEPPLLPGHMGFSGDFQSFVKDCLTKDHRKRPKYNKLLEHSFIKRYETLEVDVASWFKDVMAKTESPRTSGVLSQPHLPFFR

YopH(y) = details: 10 μM

## COc1ccc(-n2c(SCc3nc(-c4ccc(C)cc4)no3)nnc2-c2ccncc2)cc1 [Compound 1]
Aurora-A(h)
  activity at 10 µM: 95%
PKCα(h)
  activity at 10 µM: 105%
GSK3β(h)
  activity at 10 µM: 90%
Pim-1(h)
  activity at 10 µM: 91%
VHR(h)
  activity at 10 µM: 103%
SW480 cells [1]
  GI50: 11.5 µM
TNF-α pathway
  effect against the TNF-α pathway: no substantial activating or inhibitory effect
Rse(h)
  activity at 10 µM: 108%
Plk3(h)
  activity at 10 µM: 104%
SRPK1(h)
  activity at 10 µM: 96%
SW480 cells [2]
  Axin2, SP5 and NKD1 mRNA levels: dose dependent reduction
DLD-1 cells
  Axin2, SP5 and NKD1 mRNA levels: dose dependent reduction
MEK1(h)
  activity at 10 µM: 108%
EGFR(h)
  activity at 10 µM: 108%
CK1γ1(h)
  activity at 10 µM: 100%
IKKα(h)
  activity at 10 µM: 109%
[3]; plasma, 150 mg/kg, 150 mg/kg group, read-out: concentration in plasma
  concentration at 24 h after the last injection: 1300 ng/mL
[3]; plasma, 300 mg/kg, 300 mg/kg group, read-out: concentration in plasma
  concentration at 24 h after the last injection: 1300 ng/mL
[3]; tumor, 150 mg/kg, 150 mg/kg cohort, read-out: concentration in tumors, mean
  concentration at 24 h after the last injection: 11800 ng/g
[3]; tumor, 150 mg/kg, 150 mg/kg cohort, read-out: concentration in tumors, range
  concentration at 24 h after the last injection: 1900 to 32900 ng/g
[3]; tumor, 300 mg/kg, 300 mg/kg cohort, read-out: concentration in tumors, mean
  concentration at 24 h after the last injection: 2400 ng/g
[3]; tumor, 300 mg/kg, 300 mg/kg cohort, read-out: concentration in tumors, range
  concentration at 24 h after the last injection: 900 to 4900 ng/g
AMPKα1(h)
  activity at 10 µM: 95%
CDK7/cyclinH/MAT1(h)
  activity at 10 µM: 108%
CDK9/cyclin T1(h)
  activity at 10 µM: 115%
MAPK2(h)
  activity at 10 µM: 105%
CDK1/cyclinB(h)
  activity at 10 µM: 101%
EphB4(h)
  activity at 10 µM: 105%
MKK7β(h)
  activity at 10 µM: 90%
YopH(y)
  Activity (%): 94%
